Source: ChEMBL document CHEMBL4390652, “Design, biological evaluation and X-ray crystallography of nanomolar multifunctional ligands targeting simultaneously acetylcholinesterase and glycogen synthase kinase-3” (Eur J Med Chem, 2019)

Experiments:
[1] = test system: Receptor-type tyrosine-protein kinase FLT3 (Homo sapiens), P36888 [N841I]; test: Binding affinity to human partial length FLT3 N841I mutant (V592 to Y969 residues) expressed in bacterial expression system assessed as residual binding level at 10 uM by Kinomescan method relative to control
[2] = test system: Tyrosine-protein kinase ABL1 (Homo sapiens), P00519 [T315I]; test: Binding affinity to human non-phosphorylated ABL1 T315I mutant (S229 to K512 residues) expressed in mammalian expression system assessed as residual binding level at 10 uM by Kinomescan method relative to control
[3] = target: Myosin light chain kinase (Homo sapiens) (UniProt Q32MK0); test: Binding affinity to wild-type human partial length MLCK (D488 to K800 residues) expressed in bacterial expression system assessed as residual binding level at 10 uM by Kinomescan method relative to control
[4] = target: Aurora kinase A (Homo sapiens) (UniProt O14965); test: Binding affinity to wild-type human partial length AURKA (E122 to K401 residues) expressed in mammalian expression system assessed as residual binding level at 10 uM by Kinomescan method relative to control
[5] = target: Cyclin-dependent kinase 4 (Homo sapiens) (UniProt P11802); test: Binding affinity to wild-type human full length CDK4 (M1 to E303 residues) expressed in mammalian expression system assessed as residual binding level at 10 uM by Kinomescan method relative to control
[6] = target: Serine/threonine-protein kinase 17A (Homo sapiens) (UniProt Q9UEE5); test: Binding affinity to wild-type human partial length DRAK1 (R32 to E363 residues) expressed in bacterial expression system assessed as residual binding level at 10 uM by Kinomescan method relative to control
[7] = target: Serine/threonine-protein kinase PAK 2 (Homo sapiens) (UniProt Q13177); test: Binding affinity to wild-type human partial length PAK2 (P151 to R525 residues) expressed in bacterial expression system assessed as residual binding level at 10 uM by Kinomescan method relative to control
[8] = target: Maternal embryonic leucine zipper kinase (Homo sapiens) (UniProt Q14680); test: Binding affinity to wild-type human full length MELK (M1 to V651 residues) expressed in bacterial expression system assessed as residual binding level at 10 uM by Kinomescan method relative to control
[9] = target: Serine/threonine-protein kinase MRCK beta (Homo sapiens) (UniProt Q9Y5S2); test: Binding affinity to wild-type human partial length MRCKB (L56 to S417 residues) expressed in bacterial expression system assessed as residual binding level at 10 uM by Kinomescan method relative to control
[10] = target: Ephrin type-B receptor 6 (Homo sapiens) (UniProt O15197); test: Binding affinity to wild-type human partial length EPHB6 (Q634 to P948 residues) expressed in mammalian expression system assessed as residual binding level at 10 uM by Kinomescan method relative to control
[11] = target: Vascular endothelial growth factor receptor 2 (Homo sapiens) (UniProt P35968); test: Binding affinity to wild-type human partial length VEGFR2 (R787 to P1253 residues) expressed in mammalian expression system assessed as residual binding level at 10 uM by Kinomescan method relative to control
[12] = target: Serine/threonine-protein kinase tousled-like 1 (Homo sapiens) (UniProt Q9UKI8); test: Binding affinity to wild-type human partial length TLK1 (K447 to A754 residues) expressed in bacterial expression system assessed as residual binding level at 10 uM by Kinomescan method relative to control
[13] = target: Transient receptor potential cation channel subfamily M member 6 (Homo sapiens) (UniProt Q9BX84); test: Binding affinity to wild-type human partial length TRPM6 (Q1723 to I1998 residues) expressed in mammalian expression system assessed as residual binding level at 10 uM by Kinomescan method relative to control
[14] = target: Phosphatidylinositol 3-kinase catalytic subunit type 3 (Homo sapiens) (UniProt Q8NEB9); test: Binding affinity to wild-type human partial length VPS34 (S282 to H879 residues) expressed in mammalian expression system assessed as residual binding level at 10 uM by Kinomescan method relative to control
[15] = target: Protein kinase C theta type (Homo sapiens) (UniProt Q04759); test: Binding affinity to wild-type human partial length PRKCQ (L350 to S706 residues) expressed in bacterial expression system assessed as residual binding level at 10 uM by Kinomescan method relative to control
[16] = target: Calcium/calmodulin-dependent protein kinase type 1D (Homo sapiens) (UniProt Q8IU85); test: Binding affinity to wild-type human partial length CAMK1D (M1 to K299 residues) expressed in bacterial expression system assessed as residual binding level at 10 uM by Kinomescan method relative to control
[17] = target: Mitogen-activated protein kinase kinase kinase 4 (Homo sapiens) (UniProt Q9Y6R4); test: Binding affinity to wild-type human partial length MAP3K4 (G1319 to E1608 residues) expressed in bacterial expression system assessed as residual binding level at 10 uM by Kinomescan method relative to control
[18] = test system: Mast/stem cell growth factor receptor Kit (Homo sapiens), P10721 [V559D]; test: Binding affinity to human partial length KIT V559D mutant (Y545 to D952 residues) expressed in bacterial expression system assessed as residual binding level at 10 uM by Kinomescan method relative to control
[19] = target: TGF-beta receptor type-2 (Homo sapiens) (UniProt P37173); test: Binding affinity to wild-type human partial length TGFBR2 (I218 to K567 residues) expressed in bacterial expression system assessed as residual binding level at 10 uM by Kinomescan method relative to control
[20] = target: Ephrin type-A receptor 4 (Homo sapiens) (UniProt P54764); test: Binding affinity to wild-type human partial length EPHA4 (T601 to R897 residues) expressed in bacterial expression system assessed as residual binding level at 10 uM by Kinomescan method relative to control
[21] = test system: Mast/stem cell growth factor receptor Kit (Homo sapiens), P10721 [D816V]; test: Binding affinity to human partial length KIT D816V mutant (I571 to D952 residues) expressed in bacterial expression system assessed as residual binding level at 10 uM by Kinomescan method relative to control
[22] = target: Ribosomal protein S6 kinase beta-1 (Homo sapiens) (UniProt P23443); test: Binding affinity to wild-type human partial length S6K1 (M1 to S421 residues) expressed in mammalian expression system assessed as residual binding level at 10 uM by Kinomescan method relative to control
[23] = target: Serine/threonine-protein kinase 32A (Homo sapiens) (UniProt Q8WU08); test: Binding affinity to wild-type human full length YANK1 (M1 to L396 residues) expressed in mammalian expression system assessed as residual binding level at 10 uM by Kinomescan method relative to control
[24] = target: Myosin light chain kinase 2, skeletal/cardiac muscle (Homo sapiens) (UniProt Q9H1R3); test: Binding affinity to wild-type human partial length MYLK2 (D258 to K570 residues) expressed in bacterial expression system assessed as residual binding level at 10 uM by Kinomescan method relative to control

Mast/stem cell growth factor receptor Kit (Homo sapiens), P10721 [D816V], sequence (P10721 whole entry D816V, the tested form may be a part): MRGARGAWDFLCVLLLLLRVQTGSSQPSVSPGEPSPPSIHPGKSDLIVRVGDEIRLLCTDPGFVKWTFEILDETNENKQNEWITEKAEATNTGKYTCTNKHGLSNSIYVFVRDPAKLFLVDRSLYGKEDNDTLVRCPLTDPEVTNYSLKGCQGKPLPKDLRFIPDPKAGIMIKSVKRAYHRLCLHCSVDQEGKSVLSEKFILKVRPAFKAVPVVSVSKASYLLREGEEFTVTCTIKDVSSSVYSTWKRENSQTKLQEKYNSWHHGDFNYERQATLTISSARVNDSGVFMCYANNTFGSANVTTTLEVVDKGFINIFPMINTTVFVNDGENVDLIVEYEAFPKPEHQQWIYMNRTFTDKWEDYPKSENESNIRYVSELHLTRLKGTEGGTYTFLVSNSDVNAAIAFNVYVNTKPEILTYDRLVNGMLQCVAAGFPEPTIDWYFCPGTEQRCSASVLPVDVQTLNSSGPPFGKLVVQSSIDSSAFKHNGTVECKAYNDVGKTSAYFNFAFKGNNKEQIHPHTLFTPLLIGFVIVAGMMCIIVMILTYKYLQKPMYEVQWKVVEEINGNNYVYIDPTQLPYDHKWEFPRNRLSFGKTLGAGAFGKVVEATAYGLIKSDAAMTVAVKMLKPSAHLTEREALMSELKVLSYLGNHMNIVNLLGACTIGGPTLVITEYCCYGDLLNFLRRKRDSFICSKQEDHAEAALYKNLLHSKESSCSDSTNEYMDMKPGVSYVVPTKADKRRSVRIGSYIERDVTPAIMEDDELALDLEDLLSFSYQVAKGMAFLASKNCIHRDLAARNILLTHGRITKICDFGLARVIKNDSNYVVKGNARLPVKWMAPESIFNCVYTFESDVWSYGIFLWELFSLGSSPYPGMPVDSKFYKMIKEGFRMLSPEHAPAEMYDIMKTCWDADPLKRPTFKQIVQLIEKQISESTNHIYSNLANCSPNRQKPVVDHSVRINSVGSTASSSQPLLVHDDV
Serine/threonine-protein kinase 17A (Homo sapiens), sequence (Q9UEE5 whole entry, the tested form may be a part): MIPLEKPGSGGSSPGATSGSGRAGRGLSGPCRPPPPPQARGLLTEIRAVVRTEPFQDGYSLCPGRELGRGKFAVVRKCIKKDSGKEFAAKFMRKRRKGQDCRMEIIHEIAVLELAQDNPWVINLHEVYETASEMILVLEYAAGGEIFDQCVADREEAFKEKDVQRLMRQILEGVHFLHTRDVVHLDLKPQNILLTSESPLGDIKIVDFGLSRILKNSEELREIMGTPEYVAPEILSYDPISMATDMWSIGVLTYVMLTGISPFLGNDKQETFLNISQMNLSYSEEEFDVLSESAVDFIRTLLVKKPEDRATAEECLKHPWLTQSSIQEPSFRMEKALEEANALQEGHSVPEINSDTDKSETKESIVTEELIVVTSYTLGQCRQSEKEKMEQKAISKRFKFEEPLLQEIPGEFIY
Serine/threonine-protein kinase 32A (Homo sapiens), sequence (Q8WU08 whole entry, the tested form may be a part): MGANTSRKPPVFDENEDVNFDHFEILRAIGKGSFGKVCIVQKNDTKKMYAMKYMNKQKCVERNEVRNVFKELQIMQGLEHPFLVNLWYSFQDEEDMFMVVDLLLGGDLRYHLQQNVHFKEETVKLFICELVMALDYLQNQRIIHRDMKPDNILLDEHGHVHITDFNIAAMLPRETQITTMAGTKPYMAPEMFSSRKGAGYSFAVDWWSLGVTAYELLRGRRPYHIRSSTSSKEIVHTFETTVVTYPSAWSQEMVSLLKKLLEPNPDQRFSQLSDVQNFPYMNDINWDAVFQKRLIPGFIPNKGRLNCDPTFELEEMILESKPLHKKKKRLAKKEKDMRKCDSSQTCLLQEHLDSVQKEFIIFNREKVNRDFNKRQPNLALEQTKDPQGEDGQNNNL
Cyclin-dependent kinase 4 (Homo sapiens), sequence (P11802 whole entry, the tested form may be a part): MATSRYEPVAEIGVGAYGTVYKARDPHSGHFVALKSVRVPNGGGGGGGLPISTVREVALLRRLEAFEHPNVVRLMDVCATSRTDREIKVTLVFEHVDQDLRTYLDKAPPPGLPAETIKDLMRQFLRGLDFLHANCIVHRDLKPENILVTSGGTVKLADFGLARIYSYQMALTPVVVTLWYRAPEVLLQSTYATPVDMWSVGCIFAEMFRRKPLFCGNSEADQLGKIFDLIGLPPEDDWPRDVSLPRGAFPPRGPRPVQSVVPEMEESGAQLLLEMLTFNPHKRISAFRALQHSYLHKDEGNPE
Mitogen-activated protein kinase kinase kinase 4 (Homo sapiens), sequence (Q9Y6R4 whole entry, the tested form may be a part): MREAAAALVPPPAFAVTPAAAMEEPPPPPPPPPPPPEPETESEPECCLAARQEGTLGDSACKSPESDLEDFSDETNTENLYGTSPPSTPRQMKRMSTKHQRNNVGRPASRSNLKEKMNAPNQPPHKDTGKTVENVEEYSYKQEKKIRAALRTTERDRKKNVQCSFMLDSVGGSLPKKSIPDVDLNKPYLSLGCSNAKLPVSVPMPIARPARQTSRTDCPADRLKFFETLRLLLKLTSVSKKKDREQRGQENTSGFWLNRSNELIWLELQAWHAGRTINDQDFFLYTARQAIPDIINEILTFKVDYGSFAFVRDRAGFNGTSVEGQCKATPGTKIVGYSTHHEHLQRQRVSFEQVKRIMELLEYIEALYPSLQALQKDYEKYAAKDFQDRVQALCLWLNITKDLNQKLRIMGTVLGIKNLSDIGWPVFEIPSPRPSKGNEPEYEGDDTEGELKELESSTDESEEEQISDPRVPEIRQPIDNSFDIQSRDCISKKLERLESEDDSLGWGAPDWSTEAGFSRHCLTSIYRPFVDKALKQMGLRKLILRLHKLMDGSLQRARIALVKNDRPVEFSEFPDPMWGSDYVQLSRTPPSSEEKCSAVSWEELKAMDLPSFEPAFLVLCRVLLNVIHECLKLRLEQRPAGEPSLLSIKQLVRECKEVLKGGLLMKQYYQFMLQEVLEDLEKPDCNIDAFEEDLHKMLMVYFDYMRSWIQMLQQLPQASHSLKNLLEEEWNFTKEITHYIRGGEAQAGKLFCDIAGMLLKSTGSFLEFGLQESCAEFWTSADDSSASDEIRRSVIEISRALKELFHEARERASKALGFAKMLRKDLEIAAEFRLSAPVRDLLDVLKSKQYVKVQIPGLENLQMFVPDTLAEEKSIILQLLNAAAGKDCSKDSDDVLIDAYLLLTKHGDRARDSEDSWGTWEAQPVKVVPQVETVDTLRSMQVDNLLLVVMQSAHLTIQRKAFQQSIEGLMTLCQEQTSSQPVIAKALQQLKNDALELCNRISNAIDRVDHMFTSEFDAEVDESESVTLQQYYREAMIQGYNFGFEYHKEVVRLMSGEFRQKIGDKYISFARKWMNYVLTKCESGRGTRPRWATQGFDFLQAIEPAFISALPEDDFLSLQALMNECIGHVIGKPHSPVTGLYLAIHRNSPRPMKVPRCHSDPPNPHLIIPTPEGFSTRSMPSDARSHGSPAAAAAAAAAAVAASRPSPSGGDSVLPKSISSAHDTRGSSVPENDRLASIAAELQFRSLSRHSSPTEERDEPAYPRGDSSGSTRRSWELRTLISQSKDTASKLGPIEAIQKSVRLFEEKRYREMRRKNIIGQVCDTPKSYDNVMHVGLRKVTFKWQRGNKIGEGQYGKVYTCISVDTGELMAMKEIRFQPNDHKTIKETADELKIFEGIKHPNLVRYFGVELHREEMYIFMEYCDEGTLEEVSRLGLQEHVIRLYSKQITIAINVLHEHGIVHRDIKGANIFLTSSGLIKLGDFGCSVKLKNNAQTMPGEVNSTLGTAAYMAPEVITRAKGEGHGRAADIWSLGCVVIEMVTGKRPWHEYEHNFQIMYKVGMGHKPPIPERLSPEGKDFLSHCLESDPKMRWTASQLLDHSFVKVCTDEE
TGF-beta receptor type-2 (Homo sapiens), sequence (P37173 whole entry, the tested form may be a part): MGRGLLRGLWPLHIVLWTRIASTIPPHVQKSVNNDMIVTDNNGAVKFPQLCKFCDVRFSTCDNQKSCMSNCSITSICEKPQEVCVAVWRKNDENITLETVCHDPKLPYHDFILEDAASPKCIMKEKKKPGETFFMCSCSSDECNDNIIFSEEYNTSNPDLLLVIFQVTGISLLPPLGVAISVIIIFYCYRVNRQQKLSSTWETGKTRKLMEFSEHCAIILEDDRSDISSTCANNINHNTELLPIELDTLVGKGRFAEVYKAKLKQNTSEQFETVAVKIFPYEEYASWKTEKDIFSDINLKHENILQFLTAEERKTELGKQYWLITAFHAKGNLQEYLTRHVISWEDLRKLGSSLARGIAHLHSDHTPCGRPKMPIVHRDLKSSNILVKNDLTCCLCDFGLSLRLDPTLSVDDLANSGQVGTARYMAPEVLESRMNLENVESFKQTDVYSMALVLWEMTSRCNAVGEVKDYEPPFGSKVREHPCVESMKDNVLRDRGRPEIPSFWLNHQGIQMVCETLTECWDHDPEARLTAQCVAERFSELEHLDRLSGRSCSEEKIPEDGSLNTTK
Serine/threonine-protein kinase tousled-like 1 (Homo sapiens), sequence (Q9UKI8 whole entry, the tested form may be a part): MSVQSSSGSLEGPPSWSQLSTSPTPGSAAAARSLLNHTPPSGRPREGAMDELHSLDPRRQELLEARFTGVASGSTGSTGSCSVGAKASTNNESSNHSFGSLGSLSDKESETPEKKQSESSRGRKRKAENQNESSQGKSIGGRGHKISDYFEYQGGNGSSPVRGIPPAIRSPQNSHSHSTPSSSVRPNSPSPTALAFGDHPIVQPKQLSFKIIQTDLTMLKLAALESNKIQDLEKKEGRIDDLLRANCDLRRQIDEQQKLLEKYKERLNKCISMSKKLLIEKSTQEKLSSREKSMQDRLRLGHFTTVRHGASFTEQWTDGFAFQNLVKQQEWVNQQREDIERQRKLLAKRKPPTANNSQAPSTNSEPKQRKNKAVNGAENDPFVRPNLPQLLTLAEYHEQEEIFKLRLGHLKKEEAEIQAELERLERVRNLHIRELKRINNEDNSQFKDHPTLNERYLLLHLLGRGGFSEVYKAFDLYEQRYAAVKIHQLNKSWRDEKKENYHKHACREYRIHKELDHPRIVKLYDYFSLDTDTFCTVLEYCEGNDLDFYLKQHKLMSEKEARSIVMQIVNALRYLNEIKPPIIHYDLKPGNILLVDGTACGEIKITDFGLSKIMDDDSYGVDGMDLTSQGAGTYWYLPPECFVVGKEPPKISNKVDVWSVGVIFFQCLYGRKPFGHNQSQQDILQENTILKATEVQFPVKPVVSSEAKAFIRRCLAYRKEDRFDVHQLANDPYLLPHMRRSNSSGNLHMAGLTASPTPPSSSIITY

Q: How did the Activity [1] turn out when `O=C(Nc1cc(-c2cn(CCNc3c4c(nc5ccccc35)CCCC4)nn2)ccn1)Nc1cccc2c1C1CCCCN1C2=O` (racemic) was run?
A: 0%

Q: And the Activity [2]?
A: 18%

Q: What about the Activity [3] of the same molecule?
A: 0.35%

Q: What about the Activity [4] of the same molecule?
A: 9.5%

Q: And the Activity [5]?
A: 3%

Q: What about the Activity [6] of the same molecule?
A: 0.3%

Q: And the Activity [7]?
A: 34%

Q: And the Activity [8]?
A: 14%

Q: What about the Activity [9] of the same molecule?
A: 99%

Q: What about the Activity [10] of the same molecule?
A: 13%

Q: And the Activity [11]?
A: 9.1%

Q: What about the Activity [12] of the same molecule?
A: 51%

Q: What about the Activity [13] of the same molecule?
A: 100%

Q: What about the Activity [14] of the same molecule?
A: 3.7%

Q: And the Activity [15]?
A: 27%

Q: And the Activity [16]?
A: 48%

Q: And the Activity [17]?
A: 79%

Q: What about the Activity [18] of the same molecule?
A: 0.05%

Q: And the Activity [19]?
A: 19%

Q: What about the Activity [20] of the same molecule?
A: 100%

Q: And the Activity [21]?
A: 1%

Q: And the Activity [22]?
A: 10%

Q: What about the Activity [23] of the same molecule?
A: 95%

Q: What about the Activity [24] of the same molecule?
A: 24%
